# Marks after values point to notes of the source that are not given here.
# Tests used:
# [1] = test system: allergic contact dermatitis response in mice; test: Allergic contact dermatitis (TDI) model in mice, mouse ear swelling test; assay type: in vivo
# Experimental: The anti-inflammatory and anti-allergic effects of compounds 1a and 1c were assessed in a mouse model of allergic contact dermatitis, a response driven primarily by T helper type 2 (Th2) cells. […] In this model, an allergic dermatitis response is obtained by sensitizing mice to TDI and subsequently challenging them with antigen by topical administration onto the ears. A quantitative assessment of anti-inflammatory and anti-allergic effects of topically or orally administered test compounds is possible by measuring the resulting ear swelling. The advantages of the allergic contact dermatitis model (Zöllner et al., Bioessays 26:693-6 (2004)) are reproducibility and reliability (>90% of BALB/c mice respond to sensitization), a short induction protocol, quantitative assessment by measuring ear thickness, atopic dermatitis-like skin lesions can be induced, and clinically relevant pharmaceuticals, such as corticosteroids, calcineurin-inhibitors and PDE4-inhibitors, are effective in this model.
# Female BALB/c-mice were obtained from Charles River (Sulzfeld, Germany) at age 8 weeks. All animals were housed in groups of eight per cage at 22° C. with a 12 h light/dark-cycle, Water and a standard diet (Altromin, Lage/Lippe, Germany) were available ad libitum. All animals were acclimatized for one week before experimental procedures were commenced.
# Experimental procedures for BALB/c mice housing, TDI sensitization and challenge, and measurement of ear thickness were performed as previously described (Baumer et al., J Pharm Pharmacol, 55:1107-1114 (2003)) with the following modifications. For active sensitization, 100 μL of 5% (w/v) TDI was administered to the shaved and stripped abdominal epidermis on day one, and for the next three consecutive days, 50 μL of 5% (My) TDI was applied. The allergic reaction was boosted 21 days later by application of 50 μL of 0.5% (w/v) TDI. For the examination of test compound effects, the left ears were used for the TDI challenge (20 μL of 0.5% in acetone) and ear thickness measured 3 h before and 24 h after challenge.
# Group size was n=7 mice unless otherwise stated. Test compounds were freshly prepared before administration.
# Administration time: to determine optimal time for administration treatment groups were treated orally by gavage with 100 mg/kg of compound 1a or 1c (suspended in 0.5% tylose, 10 mL/kg) 1, 4 or 16 h before topical TDI challenge. One group was treated with 100 mg/kg miltefosine orally, 16 h before challenge (based on available data for optimal administration time for miltefosine) and vehicle treated mice received tylose (10 mL/kg) orally, 4 h before challenge.
# Dose-response: two groups of mice were treated orally with compound 1a at 25 mg/kg or 100 mg/kg suspended in 0.5% tylose, 4 h before topical TDI challenge. Vehicle treated mice received 0.5% tylose orally 4 h before challenge. As a positive control, dexamethasone was administered in saline solution at 1 mg/kg or 3 mg/kg, 2 h and 30 min before challenge and 1 h after challenge. The dose and dosing scheme for dexamethasone was based on previous experience showing a maximal effect in this model.
# Compound 1a was administered to two groups of mice topically in 20 μl of a 2% or 6% solution in propyleneglycol. The suspension was heated to 60° C. and mixed using a thermomixer (Eppendorf) until it became clear. The solution was applied, 2 h before topical TDI challenge by administration of 10 μl onto each of the inner and outer surfaces of the left ears. A vehicle group (17=5) was treated with propyleneglycol. As a positive control, diflorasone, diacetate was administered at 0.01% (low dose) and 0.05% (high dose) in 20 μl acetone, 2 h before challenge. A basal control group was left untreated.
# Mean and standard error of the mean (SEM) were calculated from individual ear edema values. […]
# [2] = test system: local lymph node reaction; test: Local lymph node weight and cell count after TDI challenge; assay type: in vivo, mice; details: topical 1a 2% or 6%, diflorasone 0.1% and 0.5%
# Experimental: Directly after sacrifice, the ear draining lymph node (Ln. auricularis) was prepared and excised. Organ weight was determined by means of an analytical balance (Kern, Balingen, Germany). Single cell suspensions were prepared by means of a glass potter (VWR, Darmstadt, Germany) and cells were counted with a hemocytometer (Neubauer, VWR, Germany).
# One of the most undesirable side-effects of corticosteroid administration is immunosuppression, which leads to the inability to effectively address parasitic infection, wound healing and tumor growth. In the current study, the local lymph node reaction after TDI challenge (lymph node weight and cell number) was determined to assess the response of immune organs.
# [3] = test system: allergic contact dermatitis response in mice; test: Allergic contact dermatitis (TDI) model in mice, mouse ear swelling test; assay type: in vivo; details: topical, 0.5% in 20 μl acetone, 2 h before challenge
smiles,measurement,setting,value
"CC(=O)OCC(=O)[C@@]1(OC(C)=O)[C@@H](C)C[C@H]2[C@@H]3C[C@H](F)C4=CC(=O)C=C[C@]4(C)[C@@]3(F)[C@@H](O)C[C@@]21C [Diflorasone, diflorasone diacetate, reference compound]",effect on ear swelling (in words),"[1]; topical positive control, ear thickness reduced below level of untreated mice",completely eliminated ear swelling
same,Inhibition of mouse ear swelling,"[1]; topical, 0.1% in 20 μl acetone, 2 h before challenge",101.1*** %
same,local lymph node reaction (lymph node weight and cell number),[2],completely inhibiting the increase
same,Inhibition of mouse ear swelling,[3],110.8*** %

# — patent US11453642B2, “Oxygenated amino- or ammonium-containing sulfonic acid, phosphonic acid and carboxylic acid derivatives and their medical use” (GRI BIO, INC., priority 2011, dated 2022)
